In one data set the test system is S. aureus. It counts as cell-based, Staphylococcus aureus (ATCC-29213). To be noted: 2 h, pH 7.4. How it is done:
(§1) Pseudomonas aeruginosa (Psae-27853), Staphylococcus aureus (ATCC-29213), and methicillin-resistant Staphylococcus aureus (MRSA-43300) were used. Bacteria were cultivated in tryptic soy broth (TSB) (Merck, Darmstadt, Germany) at 37 °C and 225rpm or on TSB–agarose plates at 37 °C.
(§2) Bacteria were grown to an OD620 of 0.5, harvested by centrifugation, and washed with tris-glucose buffer (TG buffer: 10 mM tris, 5 mM glucose; pH = 7.4) (P. aeruginosa and S. aureus) or phosphate–glucose buffer (PG buffer: 10 mM K2HPO4, 5 mM glucose; pH = 7.4) (MRSA). Bacteria were adjusted to 2 × 10^6 colony forming units (CFU)/mL and were incubated in 1:2 dilutions for 2 h at 37 °C with CLEC3A-derived and modified CLEC3A-derived peptides in TG buffer or PG buffer. The known AMP LL-37 was used as a positive control, while the CLEC3A-derived peptides ST-16 (Ctrl 1) and DK-29 (Ctrl 2) and untreated bacteria were used as negative controls. The bacteria were then plated onto TSB–agarose plates in previously determined dilutions and cultured overnight at 37 °C. The number of grown colonies was determined with the ImageJ cell counter plugin and is presented as a percentage of the number of grown colonies from the untreated control. The minimal inhibitory concentration (MIC50) was defined as the concentration of antimicrobial peptide where only 50% of bacteria survived. Used peptide concentrations are provided in Supplementary Table S1.
(§3) Statistical analysis of results was performed with Prism 9.3.1 (471) (GraphPad, San Diego, CA, USA). All tables and graphs show calculated averages and standard deviations obtained from three individual experiments. Bar charts of the MIC50 include numerical values with confidence intervals (95%) as the legend. Statistical significance was determined with a paired ANOVA test followed by a Dunnett test and multiple comparisons, comparing each peptide with the respective parent peptide HT-16, HT-47, or WRK-30 as indicated in the figure captions.

For a further data set, the system named is P. aeruginosa. It counts as cell-based, Pseudomonas aeruginosa (Psae-27853). The note with it: 2 h, pH 7.4. How it is done: as §1, §2, §3
In a further data set the test system is MRSA. It counts as cell-based, methicillin-resistant Staphylococcus aureus (MRSA-43300). How it is done: as §1, §2, §3
The test system of data set [1] is NIH3T3 cells (murine fibroblasts). The data set can be described thus: Cytotoxicity assay (MTS). It counts as cell-based. How it is done: NIH3T3 cells (murine fibroblasts), obtained from Prof. Dr. Wielckens, were seeded and precultured overnight. For 24 h incubation with peptides, a density of 1 × 10^4 cells/well and for 96 h incubation with peptides a density of 5 × 10^3 cells/well was used. After preculturing, the culture medium was replaced and cells were incubated with a peptide-containing medium for 24 h and 96 h. Afterward, the peptide-containing medium was removed and cells were washed with PBS before adding CellTiter 96® AQueous One Solution (Promega, Madison, WI, USA) containing 3-(4,5-dimethylthiazol-2-yl)-5-(3-carboxymethoxyphenyl)-2-(4-sulfophenyl)-2H-tetrazolium (MTS) to the culture medium. Cells incubated with peptides for 24 h were incubated with MTS medium for 1 h at 37 °C, and absorbance was measured at 490 nm. Cells incubated with peptides for 96 h were incubated with MTS medium for 2 h at 37 °C before measuring the absorbance. Samples were measured in triplicates, and the cell viability of three individual experiments is presented as a percentage of the measured OD from the untreated control. As further controls, vancomycin (final concentration 7.35 µg/mL), colistin (final concentration 147 µg/mL), and 1% TritonX in culture medium were used. Used peptide concentrations are provided in Supplementary Table S2.

The nature of data set [2]: Biostability assay in murine serum. To be noted: 30 µM peptide, room temperature; for Time for which the peptide was detectable in murine serum: pooled murine serum (C57BL6/N), samples 5 min, 10 min, n = 3. Format: in vitro ADME, murine (C57BL6/N). The method, then: The peptides (HT-47, WRK-30, and dWRK-30) were mixed with pooled murine serum, obtained from C57BL6/N wildtype mice via cardiac puncture immediately after death by cervical dislocation (the procedure was approved by the local government authority LANUV under permit no. UniKöln_Anzeige§4.22.001), to a final concentration of 30 µM. In parallel, a control with water and pooled murine serum was prepared. Both mixtures were incubated at room temperature, and samples were taken at the time points indicated in Supplementary Table S3. The samples were immediately added to a Novex Tricine SDS Sample Buffer containing a NuPage Sample Reducing Agent and incubated at 85 °C for 2 min. Boiled samples were stored at 4 °C. After the collection of all time points, samples were separated into 10–20% Tricine Gels. Gels with HT-47 and WRK-30 were subsequently transferred onto PVDF membranes (0.2 µm pore size) and immunoblot analysis with 1:200 dilutions of a custom-ordered and affinity-purified rabbit anti-WRK-30 (Eurogentec, Seraing, Belgium) antibody was performed. Gels with dWRK-30 were stained with Coomassie brilliant blue.

Data set [3] relates to primary human cartilage cells. The note with it: cited from earlier work.
Data set [4] relates to gram-positive and gram-negative bacteria. To be noted: cited from earlier work. The source says: We assessed the antimicrobial activity of the modified CLEC3A-derived peptides using an antimicrobial activity assay and determined their MIC50 (Figure 2). We used the well-investigated AMP LL-37 as a positive control. As negative controls, we used ST-16 (Ex1z), which corresponds to HT-16 with an abolished positive charge, and DK-29 (Ex2), which is solely the amphipathic α-helix of HT-47 without the positive charge of the N-terminus. […] First, we investigated the antimicrobial activity of the peptides modified from HT-16: RK-9 and ...

[5] abbreviates: HT-47: immunoblot (anti-WRK-30), 6 h, 8 h, dWRK-30: SDS-PAGE, Coomassie, 24 h, 96 h.

Where two headings read alike, the source gives them in different places. Non-standard residues stand in square brackets, D forms with d. Residues, ends and D or L forms follow the SMILES beside them. No end group written: not given here.

Regarding RKHSKRRVR [RK-9], in the data set on S. aureus, the “S. aureus MIC50” value stood at 1.62 ± 2.67 µM. For the same compound, in the data set on P. aeruginosa, the “P. aeruginosa MIC50” value turned out to be 4.17 ± 0.69 µM.

As for `CC[C@H](C)[C@H](NC(=O)[C@H](CCCCN)NC(=O)[C@H](CCC(=O)O)NC(=O)[C@H](CCCCN)NC(=O)[C@H](CO)NC(=O)[C@H](CCCCN)NC(=O)[C@H](CCCNC(=N)N)NC(=O)[C@H](Cc1ccccc1)NC(=O)[C@H](Cc1ccccc1)NC(=O)[C@H](CC(=O)O)NC(=O)CNC(=O)[C@H](CC(C)C)NC(=O)[C@@H](N)CC(C)C)C(=O)NCC(=O)N[C@@H](CCCCN)C(=O)N[C@@H](CCC(=O)O)C(=O)N[C@@H](Cc1ccccc1)C(=O)N[C@@H](CCCCN)C(=O)N[C@@H](CCCNC(=N)N)C(=O)N[C@H](C(=O)N[C@H](C(=O)N[C@@H](CCC(N)=O)C(=O)N[C@@H](CCCNC(=N)N)C(=O)N[C@H](C(=O)N[C@@H](CCCCN)C(=O)N[C@@H](CC(=O)O)C(=O)N[C@@H](Cc1ccccc1)C(=O)N[C@@H](CC(C)C)C(=O)N[C@@H](CCCNC(=N)N)C(=O)N[C@@H](CC(N)=O)C(=O)N[C@@H](CC(C)C)C(=O)N[C@H](C(=O)N1CCC[C@H]1C(=O)N[C@@H](CCCNC(=N)N)C(=O)N[C@H](C(=O)N[C@@H](CCC(=O)O)C(=O)N[C@@H](CO)C(=O)O)[C@@H](C)O)C(C)C)[C@@H](C)CC)C(C)C)[C@@H](C)CC` [LL-37, reference compound], the “MRSA MIC50” value was 2.40 ± 0.42 µM in the data set on MRSA (Figure 2c series, 2 × 10^6 CFU/mL, 2 h at 37 °C in PG buffer pH 7.4, plating and colony count, n = 3, ± confidence interval (95%), na: not applicable); 2.63 ± 1.21 µM in the data set with MRSA (Figure 3c series, 2 × 10^6 CFU/mL, 2 h at 37 °C in PG buffer pH 7.4, n = 3, ± confidence interval (95%), na: not applicable); 0.52 ± 0.64 µM in the data set on MRSA (Figure 8c series, 2 × 10^6 CFU/mL, 2 h at 37 °C in PG buffer pH 7.4, n = 3, ± confidence interval (95%)). Also, the “Cytotoxicity to NIH3T3 cells, 24 h (in words)” value in data set [1] (Figure 5A, 0.3, 3 and 30 µM peptide, 24 h, MTS, absorbance 490 nm, % of untreated control, n = 3) is on record as “cytotoxic effects”.

Take “RKHSKRRVRDKDGDLKTQIEKLWTEVNALKEI [RK-31]”: the “S. aureus MIC50” value in the data set with S. aureus came to 4.85 ± 3.10 µM.

Take “HTSRLKARKHSKRRVRDKDGDLKTQIEKLWTEVNALKEIQALQTVCL [HT-47]”: in data set [2] (setting [5]), the “Time for which the peptide was detectable in murine serum” value (“Time” for short) is on record as “up to 8 h”. In addition, the “Detection in murine serum after 24 h (in words)” value in data set [2] (pooled murine serum, immunoblot, 24 h (not shown)) is recorded as “disappeared”. In addition, the “MRSA MIC50” value with MRSA (2 h, pH 7.4) is 9.88 ± 2.43 µM. For the same compound, the “Toxic effects to primary human cartilage cells” value in data set [3] was “no toxic effects”.

As to `CC[C@@H](C)[C@@H](NC(=O)[C@@H](CCC(=O)O)NC(=O)[C@@H](CCCCN)NC(=O)[C@@H](CC(C)C)NC(=O)[C@@H](C)NC(=O)[C@@H](CC(N)=O)NC(=O)[C@H](NC(=O)[C@@H](CCC(=O)O)NC(=O)[C@H](NC(=O)[C@@H](Cc1c[nH]c2ccccc12)NC(=O)[C@@H](CC(C)C)NC(=O)[C@@H](CCCCN)NC(=O)[C@@H](CCC(=O)O)NC(=O)[C@H](NC(=O)[C@@H](CCC(N)=O)NC(=O)[C@H](NC(=O)[C@@H](CCCCN)NC(=O)[C@@H](CC(C)C)NC(=O)CNC(=O)CNC(=O)CNC(=O)[C@@H](CCCNC(=N)N)NC(=O)[C@H](NC(=O)[C@@H](CCCNC(=N)N)NC(=O)[C@@H](CCCNC(=N)N)NC(=O)[C@@H](CCCCN)NC(=O)[C@@H](CO)NC(=O)[C@@H](Cc1c[nH]cn1)NC(=O)[C@@H](CCCCN)NC(=O)[C@@H](CCCNC(=N)N)NC(=O)[C@H](N)Cc1c[nH]c2ccccc12)C(C)C)[C@H](C)O)[C@H](C)CC)[C@H](C)O)C(C)C)C(=O)O` [dWRK-30] (H-[dW][dR][dK][dH][dS][dK][dR][dR][dV][dR]GGG[dL][dK][dT][dQ][dI][dE][dK][dL][dW][dT][dE][dV][dN][dA][dL][dK][dE][dI]-OH), the “Time” value in data set [2] (setting [5]) was “up to 96 h”. Moreover, in the data set on S. aureus, the “S. aureus MIC50” value worked out at 0.66 ± 0.36 µM. For the same compound, the “MRSA MIC50” value in the data set on MRSA (2 h, pH 7.4) was found to be 2.34 ± 0.39 µM. Further, the “P. aeruginosa MIC50” value with P. aeruginosa amounted to 1.46 ± 1.55 µM.

In the case of “WRKHSKRRVRDKDGDLKTQIEKLWTEVNALKEI [WRK-31]”, the “S. aureus MIC50” value with S. aureus worked out at 1.03 ± 0.30 µM.

Take “WRKHSKRRVRGGGLKTQIEKLWTEVNALKEI [WRK-30]”: the “Time” value in data set [2] (immunoblot (anti-WRK-30), 30 min, 1 h) is recorded as “up to 30 min”.

For the compound “STSQLQAQQSSQQQVQ [ST-16, negative control, corresponds to HT-16 with abolished positive charge]”, the “Antimicrobial activity of negative control peptides (in words)” value in data set [4] is “Neither ST-16 nor DK-29 display any antimicrobial activity”.

With WRKHSKRRVR [WRK-9], the “S. aureus MIC50” value in the data set on S. aureus turned out to be 0.56 ± 0.72 µM. Also, the “P. aeruginosa MIC50” value in the data set on P. aeruginosa was 0.96 ± 0.46 µM.

In the case of RKHSKRRVRGGGLKTQIEKLWTEVNALKEI [RK-30], the “S. aureus MIC50” value in the data set on S. aureus came out at 0.63 ± 0.68 µM. For the same compound, the “MRSA MIC50” value with MRSA (2 h, pH 7.4) is 4.51 ± 3.81 µM. Moreover, the “P. aeruginosa MIC50” value in the data set on P. aeruginosa was 2.64 ± 1.79 µM.

HTSRLKARKHSKRRVR [HT-16]: in the data set on S. aureus, the “S. aureus MIC50” value was 0.24 ± 0.13 µM. The “MRSA MIC50” value in the data set with MRSA (2 h, pH 7.4) was 9.25 ± 6.25 µM. The “Toxic effects to primary human cartilage cells” value in data set [3] was “no toxic effects”. Moreover, in the data set with P. aeruginosa, the “P. aeruginosa MIC50” value is 0.51 ± 0.11 µM. The “Cytotoxicity towards murine fibroblasts, overall statement” value in data set [1] is recorded as “does not show any signs of cytotoxicity”.

Turning to “DKDGDLKTQIEKLWTEVNALKEIQALQTVCL [DK-29, negative control, solely the amphipathic α-helix of HT-47 without the positive charge of the N-terminus]”, the “Antimicrobial activity of negative control peptides (in words)” value in data set [4] was “Neither ST-16 nor DK-29 display any antimicrobial activity”.

These data come from paper PMC10604565, “Modified CLEC3A-Derived Antimicrobial Peptides Lead to Enhanced Antimicrobial Activity against Drug-Resistant Bacteria” (Antibiotics, 2023).
